In patent US12410208B2, “(2-acetamidyl)thio-beta-D-galactopyranoside derivatives” (Idorsia Pharmaceuticals Ltd, priority 2020, dated 2025) one finds IC50 data, which are given here for 17 compounds.

Where two headings read alike, the source gives them in different places.

Assay [1] has as its target biotinylated human Gal-3 (hGal-3) (Homo sapiens, UniProt P17931). The assay is described as follows: Competitive binding assay: biotinylated hGal-3 binding to microplate-adsorbed asialofetuin (ASF), spectrophotometric. In outline:
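Serially diluted compounds competed with asialofetuin on the plate for biotinylated human Gal-3 during a 3 h incubation at 4° C. Streptavidin-peroxidase with ABTS gave the spectrophotometric signal. IC50 values were averaged over repeat runs.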

For another assay, the target named is human Gal-1 (hGal-1) (Homo sapiens, UniProt P09382). The assay is described as follows: Competitive binding assay: biotinylated hGal-1 binding to microplate-adsorbed asialofetuin (ASF), spectrophotometric. To be noted: hGal-1 binding to asialofetuin; Table 15; R and S epimers of selected Examples also listed; read-out: IC50 (Galectin-1 inhibition). Put shortly:
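Spectrophotometric competition readout with ABTS after streptavidin-peroxidase (80 ng/mL, 1 h, 4 °C) detection of bound biotinylated hGal-1.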

Setting [2] is: Table 6, hGal-3, read-out: IC50 (Gal-3 inhibition).
Setting [3] is: Gal-3 inhibition, Table 5, read-out: IC50.

Sequence of biotinylated human Gal-3 (hGal-3) (P17931 whole entry): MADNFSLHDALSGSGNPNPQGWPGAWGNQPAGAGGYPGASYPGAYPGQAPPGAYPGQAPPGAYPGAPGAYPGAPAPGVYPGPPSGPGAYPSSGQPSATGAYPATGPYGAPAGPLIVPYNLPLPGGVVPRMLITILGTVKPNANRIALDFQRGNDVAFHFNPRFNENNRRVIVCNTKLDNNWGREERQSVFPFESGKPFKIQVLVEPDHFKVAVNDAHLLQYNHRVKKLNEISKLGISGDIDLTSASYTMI
Sequence of human Gal-1 (hGal-1) (P09382 whole entry): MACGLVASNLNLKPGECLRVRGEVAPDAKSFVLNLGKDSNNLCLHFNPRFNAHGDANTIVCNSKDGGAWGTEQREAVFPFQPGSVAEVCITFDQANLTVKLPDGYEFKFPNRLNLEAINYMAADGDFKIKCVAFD

For `CCC(O)(CC)C(S[C@@H]1O[C@H](CO)[C@H](O)[C@H](n2cc(-c3cc(F)c(F)c(F)c3)nn2)[C@H]1O)C(=O)N(C)CC1CC1` (stereo partly drawn) [Example 2.32.218., N-(Cyclopropylmethyl)-2-(((2S,3R,4S,5R,6R)-3,5-dihydroxy-6-(hydroxymethyl)-4-(4-(3,4,5-trifluorophenyl)-1H-1,2,3-triazol-1-yl)tetrahydro-2H-pyran-2-yl)thio)-3-ethyl-3-hydroxy-N-methylpentanamide], the values for the IC50 (in assay [1] (setting [2]); at human Gal-1 (hGal-1)) were 710 nM and 1130 nM, respectively.

`CCC(O)(CC)C(S[C@@H]1O[C@H](CO)[C@H](O)[C@H](n2cc(-c3cc(F)c(F)c(F)c3)nn2)[C@H]1O)C(=O)N(C)CC(C)(C)F` (stereo partly drawn) [Example 2.32.222., 2-(((2S,3R,4S,5R,6R)-3,5-Dihydroxy-6-(hydroxymethyl)-4-(4-(3,4,5-trifluorophenyl)-1H-1,2,3-triazol-1-yl)tetrahydro-2H-pyran-2-yl)thio)-3-ethyl-N-(2-fluoro-2-methylpropyl)-3-hydroxy-N-methylpentanamide]: the half-inhibitory concentration (IC50) (commonly the concentration at which inhibition is half-maximal) was 360 nM in assay [1] (setting [2]) and 2060 nM on human Gal-1 (hGal-1).

As for `CCN(C)C(=O)[C@H](S[C@@H]1O[C@H](CO)[C@H](O)[C@H](n2cc(-c3cc(F)c(F)c(F)c3)nn2)[C@H]1O)C1(O)CC(F)(F)C1` [Example 2.33.203R., (R)-2-(3,3-Difluoro-1-hydroxycyclobutyl)-2-(((2S,3R,4S,5R,6R)-3,5-dihydroxy-6-(hydroxymethyl)-4-(4-(3,4,5-trifluorophenyl)-1H-1,2,3-triazol-1-yl)tetrahydro-2H-pyran-2-yl)thio)-N-ethyl-N-methylacetamide], the IC50 in assay [1] (setting [3]) was 1450 nM; on human Gal-1 (hGal-1), 4200 nM.

For `CCN(C)C(=O)[C@@H](S[C@@H]1O[C@H](CO)[C@H](O)[C@H](n2cc(-c3cc(F)c(F)c(F)c3)nn2)[C@H]1O)C1(O)CC(F)(F)C1` [Example 2.33.203S., (S)-2-(3,3-Difluoro-1-hydroxycyclobutyl)-2-(((2S,3R,4S,5R,6R)-3,5-dihydroxy-6-(hydroxymethyl)-4-(4-(3,4,5-trifluorophenyl)-1H-1,2,3-triazol-1-yl)tetrahydro-2H-pyran-2-yl)thio)-N-ethyl-N-methylacetamide], the concentration for half-maximal inhibition (IC50) in assay [1] (setting [3]) came to 50 nM; on human Gal-1 (hGal-1), 110 nM.

Consider `O=C(C(S[C@@H]1O[C@H](CO)[C@H](O)[C@H](n2cc(-c3cc(F)c(F)c(F)c3)nn2)[C@H]1O)C1(O)CC(F)(F)C1)N1CCC1` (stereo partly drawn) [Example 2.33.206., 1-(Azetidin-1-yl)-2-(3,3-difluoro-1-hydroxycyclobutyl)-2-(((2S,3R,4S,5R,6R)-3,5-dihydroxy-6-(hydroxymethyl)-4-(4-(3,4,5-trifluorophenyl)-1H-1,2,3-triazol-1-yl)tetrahydro-2H-pyran-2-yl)thio)ethan-1-one], for which the IC50 was 580 nM in assay [1] (setting [3]) and 1710 nM on human Gal-1 (hGal-1).

Turning to `CN(CC1CC1)C(=O)[C@H](S[C@@H]1O[C@H](CO)[C@H](O)[C@H](n2cc(-c3cc(F)c(F)c(F)c3)nn2)[C@H]1O)C1(O)CC(F)(F)C1` [Example 2.33.218R., (R)-N-(Cyclopropylmethyl)-2-(3,3-difluoro-1-hydroxycyclobutyl)-2-(((2S,3R,4S,5R,6R)-3,5-dihydroxy-6-(hydroxymethyl)-4-(4-(3,4,5-trifluorophenyl)-1H-1,2,3-triazol-1-yl)tetrahydro-2H-pyran-2-yl)thio)-N-methylacetamide], the concentration for half-maximal inhibition (IC50) stood at 440 nM in assay [1] (setting [3]) and 580 nM on human Gal-1 (hGal-1).

`CN(CC1CC1)C(=O)[C@@H](S[C@@H]1O[C@H](CO)[C@H](O)[C@H](n2cc(-c3cc(F)c(F)c(F)c3)nn2)[C@H]1O)C1(O)CC(F)(F)C1` [Example 2.33.218S., (S)-N-(Cyclopropylmethyl)-2-(3,3-difluoro-1-hydroxycyclobutyl)-2-(((2S,3R,4S,5R,6R)-3,5-dihydroxy-6-(hydroxymethyl)-4-(4-(3,4,5-trifluorophenyl)-1H-1,2,3-triazol-1-yl)tetrahydro-2H-pyran-2-yl)thio)-N-methylacetamide]: the half-inhibitory concentration (IC50) turned out to be 40 nM in assay [1] (setting [3]) and 60 nM at human Gal-1 (hGal-1).

In the case of `CCN(C)C(=O)C(S[C@@H]1O[C@H](CO)[C@H](O)[C@H](n2cc(-c3cc(F)c(F)c(F)c3)nn2)[C@H]1O)C1(O)CCC1` (stereo partly drawn) [Example 2.34.203., 2-(((2S,3R,4S,5R,6R)-3,5-Dihydroxy-6-(hydroxymethyl)-4-(4-(3,4,5-trifluorophenyl)-1H-1,2,3-triazol-1-yl)tetrahydro-2H-pyran-2-yl)thio)-N-ethyl-2-(1-hydroxycyclobutyl)-N-methylacetamide], the IC50 in assay [1] (setting [3]) amounted to 400 nM; on human Gal-1 (hGal-1), 640 nM.

On to `CCN(C)C(=O)[C@H](S[C@@H]1O[C@H](CO)[C@H](O)[C@H](n2cc(-c3cc(F)c(F)c(F)c3)nn2)[C@H]1O)C1(O)CCC1` [Example 2.34.203R., (R)-2-(((2S,3R,4S,5R,6R)-3,5-Dihydroxy-6-(hydroxymethyl)-4-(4-(3,4,5-trifluorophenyl)-1H-1,2,3-triazol-1-yl)tetrahydro-2H-pyran-2-yl)thio)-N-ethyl-2-(1-hydroxycyclobutyl)-N-methylacetamide], for which the half-maximal inhibitory concentration (IC50) in assay [1] (setting [3]) was 3580 nM; on human Gal-1 (hGal-1) it was 28300 nM.

As to `CCN(C)C(=O)[C@@H](S[C@@H]1O[C@H](CO)[C@H](O)[C@H](n2cc(-c3cc(F)c(F)c(F)c3)nn2)[C@H]1O)C1(O)CCC1` [Example 2.34.203S., (S)-2-(((2S,3R,4S,5R,6R)-3,5-Dihydroxy-6-(hydroxymethyl)-4-(4-(3,4,5-trifluorophenyl)-1H-1,2,3-triazol-1-yl)tetrahydro-2H-pyran-2-yl)thio)-N-ethyl-2-(1-hydroxycyclobutyl)-N-methylacetamide], the values for the IC50 (in assay [1] (setting [3]); on human Gal-1 (hGal-1)) were 120 nM and 170 nM, respectively.

Turning to `O=C(C(S[C@@H]1O[C@H](CO)[C@H](O)[C@H](n2cc(-c3cc(F)c(F)c(F)c3)nn2)[C@H]1O)C1(O)CCC1)N1CCC1` (stereo partly drawn) [Example 2.34.206., 1-(Azetidin-1-yl)-2-(((2S,3R,4S,5R,6R)-3,5-dihydroxy-6-(hydroxymethyl)-4-(4-(3,4,5-trifluorophenyl)-1H-1,2,3-triazol-1-yl)tetrahydro-2H-pyran-2-yl)thio)-2-(1-hydroxycyclobutyl)ethan-1-one], the IC50 in assay [1] (setting [3]) worked out at 1200 nM; on human Gal-1 (hGal-1) it was 2710 nM.

Turning to `O=C([C@H](S[C@@H]1O[C@H](CO)[C@H](O)[C@H](n2cc(-c3cc(F)c(F)c(F)c3)nn2)[C@H]1O)C1(O)CCC1)N1CCC1` [Example 2.34.206R., (R)-1-(Azetidin-1-yl)-2-(((2S,3R,4S,5R,6R)-3,5-dihydroxy-6-(hydroxymethyl)-4-(4-(3,4,5-trifluorophenyl)-1H-1,2,3-triazol-1-yl)tetrahydro-2H-pyran-2-yl)thio)-2-(1-hydroxycyclobutyl)ethan-1-one], the IC50 is 1800 nM in assay [1] (setting [3]) and 6910 nM at human Gal-1 (hGal-1).

For the compound `O=C([C@@H](S[C@@H]1O[C@H](CO)[C@H](O)[C@H](n2cc(-c3cc(F)c(F)c(F)c3)nn2)[C@H]1O)C1(O)CCC1)N1CCC1` [Example 2.34.206S., (S)-1-(Azetidin-1-yl)-2-(((2S,3R,4S,5R,6R)-3,5-dihydroxy-6-(hydroxymethyl)-4-(4-(3,4,5-trifluorophenyl)-1H-1,2,3-triazol-1-yl)tetrahydro-2H-pyran-2-yl)thio)-2-(1-hydroxycyclobutyl)ethan-1-one], the figures for the IC50 (in assay [1] (setting [3]); on human Gal-1 (hGal-1)) were 340 nM and 620 nM, respectively.

For the compound `O=C(C(S[C@@H]1O[C@H](CO)[C@H](O)[C@H](n2cc(-c3cc(F)c(F)c(F)c3)nn2)[C@H]1O)C1(O)CCC1)N1CCCCC1` (stereo partly drawn) [Example 2.34.208., 2-(((2S,3R,4S,5R,6R)-3,5-Dihydroxy-6-(hydroxymethyl)-4-(4-(3,4,5-trifluorophenyl)-1H-1,2,3-triazol-1-yl)tetrahydro-2H-pyran-2-yl)thio)-2-(1-hydroxycyclobutyl)-1-(piperidin-1-yl)ethan-1-one], the IC50 in assay [1] (setting [3]) came to 380 nM; at human Gal-1 (hGal-1) it was 520 nM.

Turning to `O=C([C@H](S[C@@H]1O[C@H](CO)[C@H](O)[C@H](n2cc(-c3cc(F)c(F)c(F)c3)nn2)[C@H]1O)C1(O)CCC1)N1CCCCC1` [Example 2.34.208R., (R)-2-(((2S,3R,4S,5R,6R)-3,5-Dihydroxy-6-(hydroxymethyl)-4-(4-(3,4,5-trifluorophenyl)-1H-1,2,3-triazol-1-yl)tetrahydro-2H-pyran-2-yl)thio)-2-(1-hydroxycyclobutyl)-1-(piperidin-1-yl)ethan-1-one], the IC50 stood at 3240 nM in assay [1] (setting [3]) and 11500 nM at human Gal-1 (hGal-1).

Take `O=C([C@@H](S[C@@H]1O[C@H](CO)[C@H](O)[C@H](n2cc(-c3cc(F)c(F)c(F)c3)nn2)[C@H]1O)C1(O)CCC1)N1CCCCC1` [Example 2.34.208S., (S)-2-(((2S,3R,4S,5R,6R)-3,5-Dihydroxy-6-(hydroxymethyl)-4-(4-(3,4,5-trifluorophenyl)-1H-1,2,3-triazol-1-yl)tetrahydro-2H-pyran-2-yl)thio)-2-(1-hydroxycyclobutyl)-1-(piperidin-1-yl)ethan-1-one]: the IC50 (in assay [1] (setting [3]); at human Gal-1 (hGal-1)) was 140 nM in each case.

For `CN(CC1CC1)C(=O)C(S[C@@H]1O[C@H](CO)[C@H](O)[C@H](n2cc(-c3cc(F)c(F)c(F)c3)nn2)[C@H]1O)C1(O)CCC1` (stereo partly drawn) [Example 2.34.218., N-(Cyclopropylmethyl)-2-(((2S,3R,4S,5R,6R)-3,5-dihydroxy-6-(hydroxymethyl)-4-(4-(3,4,5-trifluorophenyl)-1H-1,2,3-triazol-1-yl)tetrahydro-2H-pyran-2-yl)thio)-2-(1-hydroxycyclobutyl)-N-methylacetamide], the IC50 was 310 nM in assay [1] (setting [3]) and 220 nM on human Gal-1 (hGal-1).
